According to publication PMC7077720, “Improvement of Peptide Affinity and Stability by Complexing to Cyclodextrin-Grafted Ammonium Chitosan” (Polymers, 2020):
Where a SMILES comes first, the peptide text is derived from it. [ ]: non-standard residue; d: D form.

Legend:
[1] = target: T1, α-chymotrypsin (CHT) (Bos taurus, UniProt P00766); test: Enzymatic hydrolysis of DAL by α-chymotrypsin followed by 1H NMR; type: in vitro ADME
T1 construct: purchased Sigma-Aldrich (St. Louis, MO, USA)
Experimental: The same DAL/enzyme ratio and concentrations of components selected for HPLC were used in NMR analysis at 37 °C through the entire digestion process. DAL and α-chymotrypsin stock solutions were prepared in phosphate buffer (pH = 6.8) and mixed directly into the NMR tube containing predissolved polymers at 40 °C for 2 h.
By using the same DAL/CHT molar ratio selected for HPLC analysis, low and high frequency NMR spectral regions of dalargin, pure (Figure 7a) and in presence of CHT (Figure 7b, c), were monitored over time at 37 °C. In the binary mixture DAL/CHT, a rapid decrease of the original dalargin signals was observed already after 5 min with the simultaneous formation of new peaks, which was attributable to the digestion products. […] In order to obtain a quantitative parameter, we refer to the lifetime of the drug (tf), the specific time in which non-degraded DAL reached 6% with respect to the hydrolyzed products. If the mixture is maintained at room temperature (25 °C), the tf of DAL is extended up to 45 min, owing to a reduced activity of the enzyme.

[2] = test system: Caco-2 monolayers; test: In vitro protection from enzymatic degradation on Caco-2 monolayers; type: in vitro ADME, human; conditions: DAL 50 μg/mL applied apically in HBSS, 37 °C, HPLC, three experiments
Experimental: A Caco-2 monolayer was obtained by cell seeding (10^5 cells/well) on a polycarbonate membrane filter (pore size 0.4 μm, area 1.12 cm^2) in Corning Transwell, 12-well plates (Sigma-Aldrich, Saint Louis, MO, USA). Thereafter, 0.5 and 1.5 mL of culture medium was added to apical and basolateral compartments of the transwell inserts, respectively; the culture medium was replaced every two days for 24 days. As a rule, the experiments were performed with Caco-2 monolayers that have been grown on filter inserts for 21–29 days. By day 21, the monolayers have become differentiated with regard to the expression of many transport proteins, enzymes, and brush border hydrolases. The TransEpithelial Electrical Resistance (TEER, Ωcm^2) across the Caco-2 monolayer was determined by measuring the potential difference between the apical and basolateral sides of the transwell using the Millicell-ERS (Millipore, Milano, Italy). TEER was measured prior to each experiment to ensure the confluence of the monolayers, during transport studies (every 30 min), and at 24 h from the samples’ removal to assess monolayer stability recovery. Experiments were performed by using DAL-containing samples, which had either DAL alone or the presence of polymers and cyclodextrin. […] At the end of the experiment (3 h), the apical chambers media were collected and analyzed by HPLC for DAL content evaluation.

[3] = Stability of pure DAL in water by 1H NMR; type: physicochemical; conditions: 37 °C, several days, 1H NMR chemical shifts and integrated areas
[4] = target: T1, α-chymotrypsin (CHT); test: Stability under enzymatic hydrolysis by α-chymotrypsin, residual DAL by HPLC; type: in vitro ADME; conditions: 37 °C
Experimental: GPC (Gel permeation chromatography) and HPLC analyses were carried out with a Perkin-Elmer instrument (Perkin-Elmer, Waltham, MA, USA), consisting of a Series 200 LC-290 AT pump, Rheodyne injector with a loop of 20 μL, UV-VIS SPD–6 AV detector, and Turbochrom Navigator software (Turbochrom 6.1, Perkin-Elmer, Waltham, MA, USA ). For GPC analyses, the standard pullulans were employed; the stationary phase was an X-stream H2O Mixed Bed 50 × 4.6 mm column, the mobile phase was acetate buffer 0.5 M (pH = 2.9), and the wavelength of the detector was set to 237 nm. For HPLC, the suitable mobile phase result was H2O:CH3CN = 70:30, the column was a C18 Aquapore OD-300 (Perkin-Elmer, Waltham, MA, USA) 7 µm 4.6 × 250 mm, and the wavelength of the detector was set to 227 nm.
Stock solutions of dalargin (1 mg/mL) either alone or as a 1:1 complex with MCD or polymers were mixed with α-chymotrypsin (0.36 mg/mL) solutions to obtain 0.50 mg/mL and 0.18 mg/mL (corresponding to 7.2 UI/mL) final concentrations, respectively. […] All samples were analyzed after 5 min by interrupting the digestion with temperature shock (4 °C) and extensive dilution (1:20 with cold HPLC mobile phase). Residual DAL was expressed as the percentage of initial DAL as detected by the HPLC method. […]

[5] = Complex association constant (Benesi–Hildebrand method), fluorescence spectrometry; type: binding; conditions: rounded value quoted in text; technique not named at the place
Experimental: Complex association constant (Ka) was determined by spectrometric titration based on the Benesi–Hildebrand method and performed both by UV-VIS and fluorescence spectrometry. Two sets of dilutions were prepared (Tables S2–S5, Supplementary material). In the case of UV spectrometry, 275 μM DAL was kept, whereas MCD concentrations varied, either as MCD alone or as conjugated (N^+-rCh-MCD). The solutions were prepared and analyzed after being equilibrated for 1 h at room temperature. UV spectra in the range 220–325 nm were collected, and the intensity of absorbance at 282 nm was normalized on the correspondent value at 247 nm. Diversely, for fluorescence spectroscopy evaluations, DAL concentration was kept at 70 μM, and samples were analyzed by using a PerkinElmer LS 45 fluorimeter, with excitation λ set at 270 nm and the emission spectrum collected between 340 and 270 nm. The variation of fluorescence intensity was evaluated at 304 nm, and it was normalized on 285 nm. […]
The determination of the association constant (Ka) for complexes of DAL/MCD and of DAL/N^+-rCh-MCD was performed both by UV and fluorescence spectrometry. Both techniques exploited the gradual variation of DAL absorbance or fluorescence in the presence of increasing amounts of host agent. […]

Molecule	lifetime of the drug tf at room temperature ([1]; DAL/CHT mixture kept at 25 °C, tf = time at which non-degraded DAL reached 6%, 1H NMR) [min]	time after which digestion was almost complete ([1]; binary mixture DAL/CHT, no host, 1H NMR integrated areas, 37 °C, phosphate buffer pH 6.8, DAL 0.68 mM) [min]	DAL content in the apical chamber after 3 h of incubation ([2]; Caco-2 monolayers (Transwell, 21–29 days)) [µg/mL]	residual DAL in the apical chamber after 3 h of incubation ([2]; Caco-2 monolayers)	stability of pure DAL in water [3]	reduction of the initial DAL content after 5 min of α-chymotrypsin ([4]; freshly prepared solutions, DAL 0.50 mg/mL alone or 1:1 with host, CHT 0.18 mg/mL (7.2 UI/mL), phosphate buffer pH 6.8, 0.4 M, HPLC-UV 227 nm, three independent experiments) [%]	stability of DAL to α-chymotrypsin, lyophilized samples redispersed in buffer ([4]; lyophilized DAL alone or 1:1 complex redispersed in PB, CHT 0.18 mg/mL, pH 6.8, 5 min, HPLC)	Association constant of DAL with host (Ka) [5] [M⁻¹]
CC(C)C[C@H](NC(=O)[C@H](Cc1ccccc1)NC(=O)CNC(=O)[C@@H](C)NC(=O)[C@@H](N)Cc1ccc(O)cc1)C(=O)N[C@@H](CCCNC(=N)N)C(=O)O [DAL, (D-Ala2)-Leu-Enkephalin-Arg] (H-Y[dA]GFLR-OH)	45	14	4.1 to 7.3	8%–15%	stable	80	rapidly degraded	–
2-methyl-β-cyclodextrin [MCD]	–	–	–	–	–	–	–	120
